{
  "source": "patent US10221426B2",
  "about": "“Constitutively active PYR/PYL receptor proteins for improving plant stress tolerance” (The Regents of the University of California, priority 2009, dated 2019)",
  "biological_target": "T1, PYR1 and PP2Cs (GST-HAB1, GST-ABI1, GST-ABI2) (Arabidopsis thaliana, UniProt O49686)",
  "T1 construct": "made in house; host or cells: E. coli BL21[DE3]pLysS",
  "T1 sequence (O49686 1-191)": "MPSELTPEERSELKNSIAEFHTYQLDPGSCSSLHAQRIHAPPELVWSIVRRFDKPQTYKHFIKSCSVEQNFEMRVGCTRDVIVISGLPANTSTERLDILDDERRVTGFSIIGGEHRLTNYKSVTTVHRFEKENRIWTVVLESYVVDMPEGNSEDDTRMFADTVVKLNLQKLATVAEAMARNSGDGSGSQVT",
  "T1 sequence (Q9CAJ0 1-511 partner)": "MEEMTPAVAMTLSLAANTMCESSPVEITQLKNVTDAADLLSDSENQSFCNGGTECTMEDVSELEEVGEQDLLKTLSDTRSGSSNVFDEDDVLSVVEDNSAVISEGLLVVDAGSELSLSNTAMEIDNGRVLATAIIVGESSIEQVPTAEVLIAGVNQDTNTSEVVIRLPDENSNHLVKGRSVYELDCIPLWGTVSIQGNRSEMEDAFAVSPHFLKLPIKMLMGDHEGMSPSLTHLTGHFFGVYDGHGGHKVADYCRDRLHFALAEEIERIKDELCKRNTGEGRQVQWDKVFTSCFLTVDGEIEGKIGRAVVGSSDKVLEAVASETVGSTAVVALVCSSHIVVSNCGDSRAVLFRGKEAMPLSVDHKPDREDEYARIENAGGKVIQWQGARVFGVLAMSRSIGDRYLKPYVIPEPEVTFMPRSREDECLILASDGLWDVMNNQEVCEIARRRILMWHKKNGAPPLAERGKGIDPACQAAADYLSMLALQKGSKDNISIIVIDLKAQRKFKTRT",
  "test": "Pull-down assay of 6×His-PYR1 with GST-PP2Cs",
  "format": "binding",
  "settings": "purified recombinant proteins; 10 μM (+)-ABA",
  "description": "To explore the functional implications of the PYR1-PP2C interaction, we examined if an ABA response could be reconstituted in vitro. Recombinant GST-HAB1, GST-ABI1 and GST-ABI2 were expressed in E. coli and tested for ligand-dependent interactions with 6×His-PYR1 in pull-down assays. Purified 6×His-PYR1 and GST-HAB1 (20 and 100 μg respectively, 8 μM PYR1 final concentration), were combined in 100 μl TBS containing 10 μM (+)-ABA or 1% DMSO for negative control. The reaction was incubated for 90 minutes at RT and 5 μl of PrepEase (USB) His-tagged protein purification resin was added. The resin and reaction mixture was incubated 30 min at RT with gentle shaking at 5 min intervals. The resin was washed five times with TBS containing 10 μM (+)-ABA. After the final wash, the bound protein was eluted in 20 μl SDS-PAGE buffer, boiled for 5 minutes and centrifuged. 5 μl of eluate was analyzed on SDS-PAGE. For pull-downs with ABI1 and ABI2, crude lysates were used in a similar method, except purified PP2C was replaced with cleared E. coli lysates. The amount of lysate added was determined by SDS-page analysis to yield ˜100 μg PP2C, such that the same stoichiometry was used as in assays using purified proteins.",
  "data": [
    {"compound": "CC1=CC(=O)CC(C)(C)C1(O)/C=C/C(C)=C\\C(=O)O", "note": "(single isomer, unassigned; (+)) [(+)-ABA]", "values": [
      {"measurement": "ligand-dependent PP2C interaction with 6×His-PYR1 in pull-down", "value": "promote PP2C interactions with PYR1"}
    ]},
    {"compound": "O=S(=O)(NCc1ccccn1)c1ccc(Br)c2ccccc12", "note": "[pyrabactin]", "values": [
      {"measurement": "ligand-dependent PP2C interaction with 6×His-PYR1 in pull-down", "value": "promote PP2C interactions with PYR1"}
    ]}
  ]
}
